Measurements: US20240166643A1, “IMIDAZO[1,2-A]PYRIDINE COMPOUNDS AND THEIR USE IN THERAPY” (Imperial College Innovations Limited, priority 2020, published 2024)
Where two headings read alike, the source gives them in different places.

Legend:
[1] = biological target: Plasmodium vivax (Pv) NMT (Plasmodium vivax (strain Salvador I), UniProt A5K1A2); experiment: biochemical
[2] = tested on: Plasmodium falciparum strain NF54; experiment: SYBR Green assay, Plasmodium falciparum strain NF54; conditions: NF54, read-out: Pf EC50 strain NF54
Human NMT1 (HsNMT1) = Human NMT1 (HsNMT1) (Homo sapiens, UniProt P30419); experiment: biochemical
Sequence of Human NMT1 (HsNMT1) (P30419 whole entry, looked up): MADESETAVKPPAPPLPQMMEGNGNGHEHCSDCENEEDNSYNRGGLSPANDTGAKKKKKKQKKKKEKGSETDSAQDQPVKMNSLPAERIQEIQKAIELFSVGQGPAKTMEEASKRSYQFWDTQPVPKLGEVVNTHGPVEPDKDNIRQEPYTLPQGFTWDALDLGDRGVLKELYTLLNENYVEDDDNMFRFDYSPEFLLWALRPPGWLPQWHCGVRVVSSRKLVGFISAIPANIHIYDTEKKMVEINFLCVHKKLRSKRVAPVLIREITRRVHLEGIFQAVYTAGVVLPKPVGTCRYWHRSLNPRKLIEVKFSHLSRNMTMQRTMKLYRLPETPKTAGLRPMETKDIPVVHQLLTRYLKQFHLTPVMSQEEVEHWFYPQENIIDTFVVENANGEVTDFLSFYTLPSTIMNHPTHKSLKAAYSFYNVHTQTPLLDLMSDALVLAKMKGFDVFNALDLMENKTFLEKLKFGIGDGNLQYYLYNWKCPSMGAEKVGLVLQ

in vitro = conditions: male, Sprague-Dawley, rat, pooled cryopreserved rat hepatocytes, pH 7.4
[3] = tested on: Plasmodium falciparum 3D7; experiment: SYBR Green assay, Plasmodium falciparum strain 3D7; assay type: cell-based; conditions: P. falciparum strain 3D7, 96 h incubation, read-out: Pf EC50 strain 3D7
BL-41 cells = experiment: Metabolic activity assay (MTS assay) in BL-41 cell line; assay type: cell-based; conditions: Homo sapiens, 72 h
[4] = Rat clearance and bioavailability (iv and oral dosing); assay type: in vivo; conditions: male, Sprague-Dawley, plasma; for half-life: read-out: Rat iv t1/2 (converted)
SU-DHL-10 cells = experiment: Cell cytotoxicity in SU-DHL-10 cell line (CellTiter-Glo); assay type: cell-based; conditions: Homo sapiens, SU-DHL10; CellTiter-Glo, 48 h; read-out: SU-DHL-10 EC50
DOHH-2 tumor cells = experiment: Mouse xenograft, subcutaneous DOHH-2 Lymphoma Model; assay type: in vivo; conditions: intraperitoneally 25 mg/kg twice a day for three days then four day no-dosing, cycle repeated three times, compared to vehicle
Experimental: Assay (i): Mouse Xenograft Protocol
The in vivo efficacy was assess in a subcutaneous xenograft DOHH-2 Lymphoma Model using Female 6-8 week old CB17/SCID Mice. […] The test compound administration started once the mean tumor size reached approximately 100-150 mm3. Compounds were administered either IP (vehicle 58% Na2HPO4 buffer (10 mM) (pH4.5)+40% PEG400+2% DMSO) or orally (vehicle Na2HPO4 buffer (10 mM) (pH 4.5)+0.2% tween 80). Tumor volumes were measured in two dimensions using a caliper, and the volume expressed in mm3 using the formula: V=(L×W×W)/2, where V is tumor volume, L is tumor length (the longest tumor dimension) and W is tumor width (the longest tumor dimension perpendicular to L).
Mice were dosed with Example 2 orally (50 mg/kg) once a day for 9 consecutive days (FIG. 5a), or Example 2 was dosed intraperitonally (25 mg/kg) in a cycle consisting of administration twice a day for three days followed by a four day no-dosing period (FIG. 5b). The cycle was repeated three times.
Mice were dosed with Example 129 intraperitonally (25 mg/kg) in a cycle consisting of administration twice a day for three days followed by a four day no-dosing period (Figure Sc). The cycle was repeated three times.
The protocol and any amendment(s) or procedures involving the care and use of animals in this study were reviewed and approved by the Institutional Animal Care and Use Committee (IACUC) of CrownBio prior to execution. During the study, the care and use of animals was conducted in accordance with the regulations of the Association for Assessment and Accreditation of Laboratory Animal Care (AAALAC).

P-493-6 cell line = experiment: CellTiter-Blue assay, P-493-6 with low, medium or high c-Myc; assay type: cell-based, human; conditions: 72 hours, different expression levels of c-Myc induced
From the text: Assay (d): CellTiter-Blue® Assay
Shep-ER-N-Myc cell line (cell type: human neuroblastoma) was sourced from Linda Valentijn, and firstly reported in Valentijn et. al., Cancer Res, 2005, 65(8), 3136-3145. SKNAS-ER-N-Myc cell line (cell type: human neuroblastoma) was sourced from Michael D. Hogarty, and firstly reported in Ushmorov et al., Oncogene, 2008, 27(24), 3424-3434. P-493-6 cell line was sourced from Chi Van Dang, and firstly reported in Pajic et. al., Int J Cancer, 2000, 87(6), 787-793. P-493-6 cell line is a non-transformed B cell line that can be genetically engineered to have either “low” levels of c-Myc, “medium” levels of c-Myc or “high” levels of c-Myc. The terms “low”, “medium” and “high” are descriptors commonly used in the art and will be readily understood to mean: • i) “low” levels of c-Myc—a level of MYC expression which represents non-proliferating normal cells (i.e. a level of MYC expression not sufficient to cause the cycling of the cells); • ii) “medium” levels of c-Myc—a level of MYC expression which represents normal proliferating cells; and • iii) “high” levels of c-Myc—a level of MYC expression which represents enforced/deregulated expression of c-Myc, typically observed in cancerous cells. […]

[5] = iv 3 mg/kg, administered as a single compound
[6] = oral 30 mg/kg, administered as a single compound
[7] = iv 1 mg/kg, cassette dosing of 4 compounds
[8] = oral 5 mg/kg, cassette dosing of 4 compounds

Sequence of Plasmodium vivax (Pv) NMT (A5K1A2 1-410): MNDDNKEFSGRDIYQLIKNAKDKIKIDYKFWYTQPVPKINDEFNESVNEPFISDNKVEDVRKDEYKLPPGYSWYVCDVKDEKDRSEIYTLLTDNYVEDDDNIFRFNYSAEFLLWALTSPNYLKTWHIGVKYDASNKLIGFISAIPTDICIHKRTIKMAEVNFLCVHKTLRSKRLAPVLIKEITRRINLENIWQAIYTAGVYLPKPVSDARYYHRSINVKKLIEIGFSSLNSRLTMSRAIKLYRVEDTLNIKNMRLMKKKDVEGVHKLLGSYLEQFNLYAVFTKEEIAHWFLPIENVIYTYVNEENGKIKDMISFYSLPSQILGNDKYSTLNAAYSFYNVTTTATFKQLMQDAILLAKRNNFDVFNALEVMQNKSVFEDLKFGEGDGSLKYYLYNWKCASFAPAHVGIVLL

With `O=C(NCc1cnc2ccccn12)C1CN(c2nc(N3CC4CNC4C3)ncc2Cl)C1` (stereo not drawn) [Example 7] the IC50 [1] was 40 nM, the EC50 [2] was 3200 nM and the IC50 (Human NMT1 (HsNMT1)) was 110 nM.
`O=C(NCc1cnc2ccccn12)C1CN(c2nc(N3CC4CNC4C3)ncc2F)C1` (stereo not drawn) [Example 8] showed an IC50 [1] of 470 nM, an EC50 [2] greater than 10000 nM and an IC50 (Human NMT1 (HsNMT1)) of 1020 nM.
`CC(NC(=O)C1CN(c2nc(N3CCCNCC3)ncc2F)C1)c1cnc2ccccn12` (stereo not drawn) [Example 9] gave an IC50 [1] of 41 nM, an EC50 [2] of 2100 nM and an IC50 (Human NMT1 (HsNMT1)) of 79 nM.
For `CC(NC(=O)C1CN(c2nc(N3CCCNCC3)ncc2Cl)C1)c1cnc2ccccn12` (stereo not drawn) [Example 10], the half-life at 1 µM (in vitro) was 2.03 h, the IC50 [1] was 6.3 nM and the EC50 [3] was 510 nM. The EC50 (BL-41 cells) was 240 nM and the IC50 (Human NMT1 (HsNMT1)) was 7.9 nM.
With `CC(C)(NC(=O)C1CN(c2nc(N3CCCNCC3)ncc2F)C1)c1cnc2ccccn12` [Example 11] the IC50 [1] was 14 nM, the EC50 [3] was 51 nM and the EC50 (BL-41 cells) was 890 nM. For the same compound, the half-life [4, 5] was 4.4 h and the bioavailability [4, 6] was 0.35%.
Work on `Cc1nc2ccccn2c1CNC(=O)C1CN(c2nc(N3CCCNCC3)ncc2F)C1` [Example 12] yielded an IC50 [1] of 200 nM, an EC50 [2] greater than 2500 nM and an IC50 (Human NMT1 (HsNMT1)) of 130 nM.
In the case of `Cc1nc2ccccn2c1CNC(=O)C1CN(c2nc(N3CC4CNC4C3)ncc2F)C1` (stereo not drawn) [Example 13], the IC50 [1] is reported as 660 nM, the EC50 [2] is reported as greater than 10000 nM and the IC50 (Human NMT1 (HsNMT1)) is reported as 380 nM.
In the case of `O=C(NCc1cnc2ccccn12)C1CN(c2nc(N3CCNCC3)ncc2F)C1` [Example 16], the half-life at 1 µM (in vitro) is reported as greater than 6.25 h, the IC50 [1] is reported as 68 nM and the EC50 [2] is reported as greater than 5000 nM. For the same compound, the half-life [4, 5] was 5.9 h and the bioavailability [4, 6] was 0.5%.
Compound `CN(Cc1cnc2ccccn12)C(=O)C1CN(c2nc(N3CCCNCC3)ncc2Cl)C1` [Example 17] has an IC50 [1] of 140 nM, an EC50 [2] greater than 5000 nM and an IC50 (Human NMT1 (HsNMT1)) of 360 nM.
`Cc1nc2ccccn2c1CNC(=O)C1CN(c2nc(N3CCCNCC3)ncc2Cl)C1` [Example 18] gave an IC50 [1] of 8.8 nM, an EC50 [2] of 2700 nM and an IC50 (Human NMT1 (HsNMT1)) of 20 nM.
`COc1cnc(N2CCCNCC2)nc1N1CC(C(=O)NC(C)(C)c2cnc3ccccn23)C1` [Example 20] showed an IC50 [1] of 16 nM, an EC50 [3] of 150 nM and an EC50 (BL-41 cells) of 1160 nM. It also gave an IC50 (Human NMT1 (HsNMT1)) of 16 nM.
In the case of `COc1cnc(N2CCCNCC2)nc1N1CC(C(=O)NC(C)c2c(C)nc3ccccn23)C1` (stereo not drawn) [Example 23], the IC50 [1] is reported as 30 nM, the EC50 [2] is reported as 340 nM and the IC50 (Human NMT1 (HsNMT1)) is reported as 27 nM.
In the case of `Cc1nc2ccccn2c1C(C)NC(=O)C1CN(c2nc(N3CCCNCC3)ncc2Cl)C1` (stereo not drawn) [Example 24], the IC50 [1] is reported as 12 nM, the EC50 [2] is reported as 180 nM and the IC50 (Human NMT1 (HsNMT1)) is reported as 6.3 nM.
In the case of `CC(NC(=O)C1CN(c2nc(N3CCNCC3)ncc2F)C1)c1cnc2ccccn12` (stereo not drawn) [Example 31], the IC50 [1] is reported as 19 nM, the EC50 [2] is reported as 1300 nM and the IC50 (Human NMT1 (HsNMT1)) is reported as 180 nM.
`COc1cnc(N2CCN[C@H](C)C2)nc1N1CC(C(=O)NC(C)(C)c2cnc3ccccn23)C1` [Example 36] showed an IC50 [1] of 6.2 nM and an EC50 [2] of 12 nM.
In the case of `COc1cnc(N2CCN[C@@H](C)C2)nc1N1CC(C(=O)NC(C)(C)c2cnc3ccccn23)C1` [Example 39], the IC50 [1] is reported as 12 nM and the EC50 [2] is reported as 85 nM.
`CN(c1ncc(Cl)c(N2CC(C(=O)NC(C)(C)c3cnc4ccccn34)C2)n1)C1CCNC1` (stereo not drawn) [Example 41] showed an IC50 [1] of 7.2 nM, an EC50 [2] of 45 nM and an IC50 (Human NMT1 (HsNMT1)) of 19 nM.
With `CC(C)(NC(=O)C1CN(c2nc(N3CCCNCC3)ncc2Cl)C1)c1cnc2ccccn12` [Example 51] the IC50 [1] was 5.3 nM, the EC50 [3] was 28 nM and the EC50 (BL-41 cells) was 80 nM. For the same compound, the half-life [4, 5] was 9.1 h and the bioavailability [4, 6] was 0.07%.
`CN1CCCN(c2ncc(F)c(N3CC(C(=O)NCc4cnc5ccccn45)C3)n2)CC1` [Example 52] showed an IC50 [1] of 47 nM and an EC50 [2] greater than 10000 nM.
With `CN1CCCN(c2ncc(Cl)c(N3CC(C(=O)NCc4cnc5ccccn45)C3)n2)CC1` [Example 53] the half-life at 1 µM (in vitro) was 0.4 h, the IC50 [1] was 5.8 nM and the EC50 [2] was 260 nM.
`CN1CCN(c2ncc(F)c(N3CC(C(=O)NC(C)(C)c4cnc5ccccn45)C3)n2)CC1` [Example 54] gave a half-life at 1 µM (in vitro) greater than 3 h, an IC50 [1] of 6.2 nM and an EC50 [3] of 160 nM. It also gave an EC50 (BL-41 cells) of 2310 nM, a half-life [4, 7] of 3.5 h and a bioavailability [4, 8] of 33%.
For `CN1CCN(c2ncc(Cl)c(N3CC(C(=O)NC(C)(C)c4cnc5ccccn45)C3)n2)CC1` [Example 55], the half-life at 1 µM (in vitro) was 2.33 h, the IC50 [1] was 4.4 nM and the EC50 [3] was 64 nM. For the same compound, the EC50 (BL-41 cells) was 1070 nM, the half-life [4, 7] was 3.1 h and the bioavailability [4, 8] was 38%.
In the case of `CN1CCCN(c2ncc(Cl)c(N3CC(C(=O)NC(C)(C)c4cnc5ccccn45)C3)n2)CC1` [Example 57], the half-life at 1 µM (in vitro) is reported as 2.52 h, the IC50 [1] is reported as 2.2 nM and the EC50 [3] is reported as 49 nM. It also gave an EC50 (BL-41 cells) of 1250 nM, an IC50 (Human NMT1 (HsNMT1)) of 3.5 nM and an EC50 (SU-DHL-10 cells) of 203 nM. For the same compound, the half-life [4, 7] was 6.6 h and the bioavailability [4, 8] was 6%.
With `C[C@H]1CNCCN1c1ncc(Cl)c(N2CC(C(=O)NC(C)(C)c3cnc4ccccn34)C2)n1` [Example 129, (S)-1-(5-chloro-2-(2-methylpiperazin-1-yl)pyrimidin-4-yl)-N-(2-(imidazo[1,2-a]pyridin-3-yl)propan-2-yl)azetidine-3-carboxamide] the tumour volume (DOHH-2 tumor cells) was “significant decrease in tumour volume”, the IC50 (Human NMT1 (HsNMT1)) was 2 nM and the EC50 (SU-DHL-10 cells) was 6 nM.
For `C[C@H]1CN(C)CCN1c1ncc(Cl)c(N2CC(C(=O)NC(C)(C)c3cnc4ccccn34)C2)n1` [Example compound 2], the “metabolic viability of the P-493-6 cell line” value (P-493-6 cell line) was “clear MYC-dependent loss in metabolic viability”.
